The text below walks through data of patent US8633238B2, “Lactams and uses thereof” (Joben Bio-Medical Co., Ltd., priority 2012, dated 2014).

Holding throughout (type): cell-based, human
Holding throughout (conditions): 50 μM, 24 h

The test system of one assay is MDA-MB-231 cells. As to the kind of experiment: MTT antiproliferation assay, MDA-MB-231 cells. As to the method:
(§1) Cell Lines and Culture. MCF-7, T-47D, and H184B5F5/M10 cells were cultured with 5% CO2 atmosphere at 37° C.; MDA-MB-231 cells were cultured without CO2 at 37° C. The MCF-7 cells were cultured in MEM containing 10% heat-inactivated FBS, 100 units/mL penicillin, 100 μg/mL streptomycin, and 1 mM sodium pyruvate. The T-47D cells were maintained in RPMI-1640 medium containing 10% heat inactivated FBS, 100 units/mL penicillin, and 100 μg/mL streptomycin. […]
(§2) Assay for Antiproliferation. To determine the antiproliferative effect, MCF-7, T-47D, MDA-MB-231, or H184B5F5/M10 cells were assessed using the MTT assay as previously reported (Ho, C. Y.; Kim, C, F.; Leung, K. N.; Fung, K. P.; Tse, T. F.; Chan, H.; Lau, C. B. Differential anti-tumor activity of Coriolus versicolor (Yunzhi) extract through p53- and/or Bcl-2-dependent apoptotic pathway in human breast cancer cells. Cancer Biol. Ther. 2005, 4, e11-e17). […] The absorbance at 570 nm was measured, and the viability of cells was calculated using the following equation: relative cell number (%)=(average absorbance of treated wells)×100/(average absorbance of blank vehicle wells).

The next assay has as its system MCF-7 cells. Put plainly: MTT antiproliferation assay, MCF-7 cells. As to the method: as §1, §2
(In general: Tetrazolium dyes change colour on reduction, which living cells bring about.)

The test system of another assay is T-47D cells. As to the kind of experiment: MTT antiproliferation assay, T-47D cells. The protocol:
as §1, §2

Turning to coixspirolactam D [compound 1], the percentage of inhibition with MDA-MB-231 cells is given as 47.4%; with MCF-7 cells it was 30.2%.

With coixspirolactam E [compound 2], the percentage of inhibition in the assay on MDA-MB-231 cells is on record as 25.3%; in the assay with T-47D cells it was 20.7%.
